Values of other authors as cited in patent publication US20220031739A1, “ANTI-VIRAL COMPOSITIONS AND METHODS OF USE THEREOF” (Eye Therapies LLC, priority 2020, published 2022).

System: herpes simplex virus ("HSV")

O=c1[nH]c(=O)n([C@H]2C[C@H](O)[C@@H](CO)O2)cc1C(F)(F)F [Trifluridine, trifluridine]
toxicity (likelihood especially high when used for long periods for deeper infections): causes toxicity of both virus and corneal cells | time to treat superficial HSV infections from the start of treatment (superficial HSV infections): ≤ 1 week
